Molecules are shown by their SMILES.

A short description of the data set: solvent given as SMILES.

Turning to `CCCCCCCCCCCC#CC#CCCCCCCCCCN1C(=O)c2ccc3c4ccc5c6c(ccc(c7ccc(c2c37)C1=O)c64)C(=O)N(CCCCCCCCCC#CC#CCCCCCCCCCCCC)C5=O`, where the note is “in ClC(Cl)Cl”, the emission maximum is reported as 535 nm.
Consider `CCOC(=O)CCOc1ccc(C(c2c(C)[nH]c3ccccc23)c2c(C)[nH]c3ccccc23)cc1`, for which the emission maximum (in C1CCCCC1) stood at 328 nm, the emission maximum (in CC#N) stood at 348 nm, the emission maximum (in CO) is given as 349 nm and the emission maximum (in O) is reported as 350 nm.
On to `CC1=CC(C)=[N+]2C1=C(c1ccccc1)c1c(C)c(-c3cccs3)c(C)n1[B-]2(F)F`, for which the emission maximum came to 600 nm (in CO), 591 nm (in Cc1ccccc1) and 594 nm (in ClCCl).
The molecule `COc1ccc(C2=[N+]3C(=Nc4c(-c5cc(OC)c(OC)c(OC)c5)c(Br)c(-c5ccc(OC)cc5)n4[B-]3(F)F)C(c3cc(OC)c(OC)c(OC)c3)=C2Br)cc1` returned an emission maximum (in Cc1ccccc1) of 723 nm.
`COC(=O)c1ccc(/C=C2\C=C(c3ccc(OC)c(OC)c3)NC2=O)cc1` registered an emission maximum (in C1COCCO1) of 574 nm.
The molecule `O=S(=O)(c1ccc(-c2ccc3c(c2)c2ccccc2n3-c2ccccc2)cc1)c1ccc(-c2ccc3c(c2)c2ccccc2n3-c2ccccc2)cc1` displayed an emission maximum (in C1CCCCC1) of 365.07 nm; an emission maximum (in C1CCOC1) of 403.28 nm; an emission maximum (in CN(C)C=O) of 431.81 nm; an emission maximum (in Cc1ccccc1) of 381 nm; an emission maximum (in ClC(Cl)Cl) of 402.48 nm; an emission maximum (in ClCCl) of 415.93 nm.
In the case of `N#CC1=c2cc3c4c(c2Oc2c1cc1c5c2CCCN5CCC1)CCC[N+]=4CCC3`, the emission maximum (in CCO) was 700 nm.
Consider `CCCCN1C(=O)c2ccc3c4c(Br)cc5c6c(ccc(c7c(Br)cc(c2c37)C1=O)c64)C(=O)N(CCCC)C5=O`, for which the emission maximum (in ClC(Cl)Cl) is given as 542 nm.
In the case of `C(=C\c1c2ccccc2cc2ccccc12)/c1ccc(Oc2ccc3ccccc3c2-c2c(Oc3ccc(/C=C/c4c5ccccc5cc5ccccc45)cc3)ccc3ccccc23)cc1`, under “in ClCCl”, the emission maximum stood at 486 nm.
Regarding `CC1(C)c2ccccc2N(c2ccccc2)c2ccc(S(=O)(=O)c3ccc4c(c3)C(C)(C)c3ccccc3N4c3ccccc3)cc21`, the emission maximum was determined as 370.45 nm (in Cc1ccccc1) and 381 nm (in O=P(c1ccccc1)(c1ccccc1)c1ccccc1Oc1ccccc1P(=O)(c1ccccc1)c1ccccc1).
For `C(=C(c1ccccc1)c1ccccc1)c1ccc(-c2ccc(C=C(c3ccccc3)c3ccccc3)cc2)cc1`, the emission maximum (in C1CCOC1) is on record as 445 nm.
`N#Cc1ccc(/C=C2\N=C(c3ccccc3)NC2=O)cc1` yielded an emission maximum (in C1COCCO1) of 464 nm.
Consider `O=C1c2ccccc2C(=O)N1c1ccc(Cn2cncn2)cc1`, for which the emission maximum came to 361 nm (in C1CCOC1); 313 nm (in C1COCCO1); 471 nm (in CC#N); 407 nm (in CC(C)=O); 427 nm (in CC(C)O); 310 nm (in CCCCCC). Moreover, the emission maximum was 402 nm (in CCCCO); 422 nm (in CCO); 355 nm (in CCOC(C)=O); 339 nm (in CCOCC); 503 nm (in CN(C)C=O); 440 nm (in CO). Further, the emission maximum amounted to 563 nm (in CS(C)=O), 323 nm (in Cc1ccccc1) and 367 nm (in ClCCl).
Turning to `COc1ccc2n1[B-](F)(F)[N+]1=CC=CC1=C2c1ccccc1`, the emission maximum (in CC#N) was found to be 513 nm; the emission maximum (in CCCCCC) is reported as 514 nm; the emission maximum (in CCOC(C)=O) worked out at 514 nm; the emission maximum (in CO) was 512 nm; the emission maximum (in ClCCl) is 518 nm.
`C[Si]1(C)O[Si](C)(C)c2cc3c(-c4ccccc4)c4cc([N+](=O)[O-])ccc4nc3cc21` yielded an emission maximum (in ClCCl) of 521 nm.
Same read-out and setting: the result for `CCOC(=O)c1ccc(C2=Cc3ccccc3P2(=O)c2ccccc2)cc1` (configuration not stated) reads 425 nm.
Take `Cc1ccc2c(c1)C1(c3ccccc3-c3ccccc31)c1cc(C)ccc1N2c1ccc(-c2nc(-c3ccccc3)cc(-c3ccccc3)n2)cc1`: the emission maximum is, setting by setting: (in Cc1ccccc1) 458 nm; (in O=P(c1ccccc1)(c1ccccc1)c1ccc2oc3ccc(P(=O)(c4ccccc4)c4ccccc4)cc3c2c1) 464 nm.
Consider `COC(=O)C(Cc1ccc2oc(-c3ccc(N(c4ccccc4)c4ccccc4)cc3)nc2c1)NC(=O)OC(C)(C)C` (configuration not stated), for which the emission maximum is, setting by setting: (in C1CCCCC1) 395.25 nm; (in C1CCOC1) 447.04 nm; (in C1COCCO1) 436.75 nm; (in CC1CCCCC1) 395 nm; (in CC1COC(=O)O1) 474 nm; (in CC#N) 465.75 nm. In addition, the emission maximum (in CC(C)=O) is 456.17 nm; the emission maximum (in CC(C)O) turned out to be 455.75 nm; the emission maximum (in CC(O)CO) is 482.75 nm; the emission maximum (in CCCCCC) was 392.75 nm; the emission maximum (in CCCCCCCC) came out at 394 nm; the emission maximum (in CCCCCO) came out at 454.75 nm. The emission maximum was determined as 454.5 nm (in CCCCO); 475.75 nm (in CCO); 448.75 nm (in CCOC(C)=O); 461.75 nm (in CN(C)C=O); 486 nm (in CO); 453.75 nm (in COCCOC). Also, the emission maximum reads like this: (in CS(C)=O) 474.5 nm; (in ClC(Cl)Cl) 445 nm; (in ClCCl) 451.25 nm; (in N#Cc1ccccc1) 461.25 nm; (in NC=O) 491.5 nm; (in O) 502.99 nm. The same molecule yielded an emission maximum (in OCC(F)(F)F) of 496.25 nm.
Under “in C1CCOC1”, `CCC1(CC)c2cc(Br)ccc2-c2c1c1c(c3c2C(CC)(CC)c2cc(-c4cccs4)ccc2-3)C(CC)(CC)c2cc(Br)ccc2-1` registered an emission maximum of 371 nm.
On the same count and under the same terms, then `c1ccc(-n2c(-c3c(-n4c5ccccc5c5ccccc54)cccc3-n3c4ccccc4c4ccccc43)nc3ccccc32)cc1`, with 418 nm.
In turn, `C(=N\c1ccc(-c2cn3nc(-c4cccs4)sc3n2)cc1)/c1ccc(N(c2ccccc2)c2ccccc2)cc1` had an emission maximum (in ClC(Cl)Cl) of 552 nm.
In turn, `Cc1cc(N(C)C)ccc1C1=C2C=CC(=[N+](C)C)C=C2[Si](C)(C)c2cc(N(C)C)ccc21` came in with an emission maximum (in O) of 663 nm.
As to `N#Cc1ccc(C#Cc2ccc3ccc4ccc(C#Cc5ccc(C#N)cc5)c5ccc2c3c45)cc1`, the emission maximum (in C1COCCO1) is recorded as 443.3 nm; the emission maximum (in CC(C)=O) is 445.8 nm; the emission maximum (in CCCCCC) is listed as 435.5 nm; the emission maximum (in CCCCCCO) stood at 448 nm; the emission maximum (in CCO) is on record as 445.5 nm; the emission maximum (in CCOC(C)=O) is 442.4 nm. The emission maximum is 445.3 nm (in CO), 446.4 nm (in Cc1ccccc1) and 448.8 nm (in ClCCl).
For the setting “in CC#N”, `COc1ccc(-c2pc3ccccc3s2)cc1` (configuration not stated) had an emission maximum of 445 nm.
Under “in Cc1ccccc1”, `CC(C)[Si](C#Cc1c2ccccc2c(C#Cc2c3ccccc3c(C#Cc3c4ccccc4c(C#Cc4c5ccccc5c(C#Cc5c6ccccc6c(C#C[Si](C(C)C)(C(C)C)C(C)C)c6ccccc56)c5ccccc45)c4ccccc34)c3ccccc23)c2ccccc12)(C(C)C)C(C)C` came in with an emission maximum of 623 nm.
As to `c1csc(-c2ccc(-c3ccc(-c4cccs4)s3)s2)c1`, the emission maximum came out at 474 nm (in CCCCCCCCCCCCCC) and 480 nm (in ClCCl).
Turning to `CC(C)CCCN1c2ccccc2CCc2ccccc21`, the emission maximum is given as 352 nm (in CC#N) and 360 nm (in CO).
As for `CN(C)c1ccccc1`, the emission maximum (in C1CCCCC1) was 339.9 nm.
As to `CN(C)c1ccc2cc(C3=[O+][B-](F)(F)OC(c4ccccc4)=C3)ccc2c1`, the emission maximum by setting is: (in C1CCOC1) 643 nm; (in CC#N) 406 nm; (in CC(C)=O) 682 nm; (in CS(C)=O) 422 nm; (in Cc1ccccc1) 573 nm; (in ClC(Cl)Cl) 613 nm. The emission maximum (in ClCCl) was determined as 650 nm.
Regarding `CCN(CC)c1ccc2cc(-c3ccc(S(C)(=O)=O)cc3)oc(=O)c2c1`, the emission maximum by setting is: (in CC(C)=O) 487 nm; (in CCCCCC) 419 nm; (in CCCCO) 476 nm; (in CCCO) 480 nm; (in CCO) 485 nm; (in CCOC(C)=O) 465 nm. Also, the emission maximum turned out to be 499 nm (in CN(C)C=O), 489 nm (in CO) and 456 nm (in ClC(Cl)Cl).
Take `[NH3+]c1ccc2c(c1)Cc1ccccc1-2`: the emission maximum (in O) is reported as 314 nm.
For the molecule `COC(=O)C(Cc1ccc2oc(-c3ccc(-n4c5ccccc5c5ccccc54)cc3)nc2c1)NC(=O)OC(C)(C)C` (configuration not stated), the emission maximum (in C1CCCCC1) was 362 nm; the emission maximum (in C1CCOC1) came to 429 nm; the emission maximum (in C1COCCO1) worked out at 400 nm; the emission maximum (in CC1CCCO1) was determined as 404.01 nm; the emission maximum (in CC#N) stood at 447.01 nm; the emission maximum (in CC(C)(C)O) is given as 421 nm. The emission maximum by setting is: (in CC(C)=O) 432.99 nm; (in CC(C)CC(C)(C)C) 361.01 nm; (in CC(C)O) 431 nm; (in CC(O)CO) 455 nm; (in CCCCCCCO) 421.99 nm; (in CCCCCCO) 424 nm. Besides, the emission maximum runs as follows: (in CCCCCO) 409 nm; (in CCCCO) 430 nm; (in CCO) 445 nm; (in CCOC(C)=O) 409 nm; (in CCOCC) 402.32 nm; (in CN(C)C=O) 438.02 nm. For the same molecule, the emission maximum by setting is: (in CO) 465.98 nm; (in CS(C)=O) 445.99 nm; (in Cc1ccccc1) 391.01 nm; (in OCCO) 470.01 nm.
Under “in CCO”, `CCN(C(C)=O)c1cc2c(cc1C)C(c1ccccc1C(=O)O)=C1CCCC(/C=C/C3=[N+](C)c4ccccc4C3(C)C)=C1O2` registered an emission maximum of 687 nm.
